21 compounds from patent US20210395239A1 (Hoffmann-La Roche Inc., priority 2018, published 2021) can be followed below.

Molecules are shown by their SMILES. Where only a bound is given, the exact number is not on record here.

For one series, the target named is T1, CYP3A4 (Homo sapiens, UniProt P08684).
T1 construct: tissue BD-Gentest 452117; host or cells: human liver microsomes
Put plainly: CYP inhibition assay in human liver microsome, CYP3A4. It counts as in vitro ADME. The following applies: substrate midazolam 5 μM, third value of 2C9/2D6/3A4; for inhibition at 5 min, 10 µM: human, human liver microsomes, probe midazolam 5 μM. In a few lines: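 Pooled human liver microsomes with a substrate for each CYP were incubated with compound at 37 °C after NADPH addition, for 5 min (CYP2D6: 10 min), then quenched with acetonitrile containing labelled metabolite standards. Metabolite/internal-standard peak area ratios were measured by RapidFire MS/MS. % inhibition was scaled between DMSO and standard-inhibitor controls.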

The next series has as its target T2, hERG channel (Homo sapiens, UniProt Q12809).
T2 construct: expressed in transfected cells; host or cells: CHO (Chinese hamster ovary)
As to the kind of experiment: hERG channel inhibition assay (patch-clamp, CHOhERG cells). The series is classed as cell-based. The following applies: for IC20: human, CHO cells stably expressing hERG (CHOhERG); for IC20 / IC50: patch-clamp, CHOhERG cells; for hERG IC20/TLR7 IC50 / hERG IC20/TLR8 IC50 / hERG IC20/TLR9 IC50: safety ratio. In a few lines: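 Whole-cell voltage-clamp recordings used CHO cells stably expressing human hERG, with IKhERG evoked by a voltage protocol at 0.1 Hz. Increasing compound concentrations were applied, each for 3–10 min to reach steady state, and current amplitude and kinetics were expressed relative to control (100%).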

T2 sequence (Q12809 whole entry): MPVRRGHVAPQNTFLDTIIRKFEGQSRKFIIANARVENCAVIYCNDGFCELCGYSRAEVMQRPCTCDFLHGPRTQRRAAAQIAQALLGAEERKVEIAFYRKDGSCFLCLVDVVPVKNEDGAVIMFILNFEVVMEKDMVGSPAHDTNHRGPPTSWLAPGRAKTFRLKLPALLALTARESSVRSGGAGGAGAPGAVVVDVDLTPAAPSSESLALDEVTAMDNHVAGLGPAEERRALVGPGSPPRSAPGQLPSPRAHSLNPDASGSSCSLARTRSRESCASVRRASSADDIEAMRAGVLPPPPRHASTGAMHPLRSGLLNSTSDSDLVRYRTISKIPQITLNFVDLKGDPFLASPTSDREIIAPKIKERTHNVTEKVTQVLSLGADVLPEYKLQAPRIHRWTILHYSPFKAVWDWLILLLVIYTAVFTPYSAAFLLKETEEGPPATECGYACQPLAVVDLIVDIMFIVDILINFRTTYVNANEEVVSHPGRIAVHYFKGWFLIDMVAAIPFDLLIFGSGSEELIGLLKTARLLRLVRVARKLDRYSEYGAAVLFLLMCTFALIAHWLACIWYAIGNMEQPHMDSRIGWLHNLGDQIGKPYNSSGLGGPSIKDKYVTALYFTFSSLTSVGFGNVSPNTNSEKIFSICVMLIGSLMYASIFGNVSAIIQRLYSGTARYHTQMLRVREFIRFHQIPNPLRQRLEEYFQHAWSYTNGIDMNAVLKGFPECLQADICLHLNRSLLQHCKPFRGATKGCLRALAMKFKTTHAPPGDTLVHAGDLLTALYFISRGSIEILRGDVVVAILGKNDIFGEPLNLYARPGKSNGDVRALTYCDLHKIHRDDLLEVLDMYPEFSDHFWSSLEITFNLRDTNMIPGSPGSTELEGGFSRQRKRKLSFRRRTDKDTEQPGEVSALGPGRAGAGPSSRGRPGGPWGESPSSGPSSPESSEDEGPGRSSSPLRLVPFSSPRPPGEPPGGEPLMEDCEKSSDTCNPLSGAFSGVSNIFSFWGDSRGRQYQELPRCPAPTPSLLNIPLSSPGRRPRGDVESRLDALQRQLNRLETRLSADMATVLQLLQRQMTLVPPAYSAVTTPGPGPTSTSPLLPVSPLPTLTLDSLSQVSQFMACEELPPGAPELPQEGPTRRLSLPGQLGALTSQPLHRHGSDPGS
T1 sequence (P08684 whole entry): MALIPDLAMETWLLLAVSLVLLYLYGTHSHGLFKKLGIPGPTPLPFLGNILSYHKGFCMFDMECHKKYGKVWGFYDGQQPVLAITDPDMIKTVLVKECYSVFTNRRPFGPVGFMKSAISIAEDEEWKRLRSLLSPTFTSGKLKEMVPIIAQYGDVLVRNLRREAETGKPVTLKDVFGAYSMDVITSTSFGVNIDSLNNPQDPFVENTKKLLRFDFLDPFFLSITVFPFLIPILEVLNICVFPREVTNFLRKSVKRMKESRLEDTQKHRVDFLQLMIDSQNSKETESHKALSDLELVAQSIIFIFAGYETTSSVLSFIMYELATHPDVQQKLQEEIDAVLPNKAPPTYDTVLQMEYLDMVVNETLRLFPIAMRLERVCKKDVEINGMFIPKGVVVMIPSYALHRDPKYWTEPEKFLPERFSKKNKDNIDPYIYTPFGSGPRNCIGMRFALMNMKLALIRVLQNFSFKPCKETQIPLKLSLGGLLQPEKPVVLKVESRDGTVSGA

Turning to `COC1CNC[C@H]1Nc1cccc(N2CCN(C[C@H]3CN(c4ccc(C#N)c5ncccc45)C[C@@H](C)O3)CC2)n1` (stereo in doubt) [Example 39, 5-[(2S,6R)-2-[[4-[6-[[(3R,4R)-4-methoxypyrrolidin-3-yl]amino]-2-pyridyl]piperazin-1-yl]methyl]-6-methyl-morpholin-4-yl]quinoline-8-carbonitrile], the inhibition at 5 min, 10 µM against CYP3A4 was 23.5%.
For the compound `COC1CN(c2nccc(N3CCN(C[C@H]4CN(c5ccc(C#N)c6ncccc56)C[C@@H](C)O4)CC3)n2)C[C@H]1N` (stereo in doubt) [Example 52, 5-[(2S,6R)-2-[[4-[2-[(3R,4R)-3-amino-4-methoxy-pyrrolidin-1-yl]pyrimidin-4-yl]piperazin-1-yl]methyl]-6-methyl-morpholin-4-yl]quinoline-8-carbonitrile], the “CYP (%) 3A4 inhibition” value on CYP3A4 is on record as 2%.
The same measure, in the same setting: the figure for `CO[C@H]1CN(c2nccc(N3CCN(C[C@H]4CN(c5ccc(C#N)c6ncccc56)C[C@@H](C)O4)CC3)n2)CC1N` (stereo in doubt) [Example 53, 5-[(2S,6R)-2-[[4-[2-[(3S,4S)-3-amino-4-methoxy-pyrrolidin-1-yl]pyrimidin-4-yl]piperazin-1-yl]methyl]-6-methyl-morpholin-4-yl]quinoline-8-carbonitrile] is 7.5%.
With `C[C@@H]1CN(c2ccc(C#N)c3ncccc23)C[C@H](CN2CCN(c3cncc(N4CCNCC4)c3)CC2)O1` [Example 7, 5-[(2R,6S)-2-methyl-6-[[4-(5-piperazin-1-yl-3-pyridyl)piperazin-1-yl]methyl]morpholin-4-yl]quinoline-8-carbonitrile], at hERG channel, the IC20 was over 10 µM, the IC50 is over 20 µM, the “hERG IC20/TLR7 IC50” value was over 294 and the “hERG IC20/TLR8 IC50” value is over 1111. In addition, the “hERG IC20/TLR9 IC50” value at hERG channel was over 196. The inhibition at 5 min, 10 µM against CYP3A4 is 15.5%.
For `C[C@@H]1CN(c2ccc(C#N)c3ncccc23)C[C@H](CN2CCN(c3ccc(N4CCNCC4)cn3)CC2)O1` [Example 8, 5-[(2R,6S)-2-methyl-6-[[4-(5-piperazin-1-yl-2-pyridyl)piperazin-1-yl]methyl]morpholin-4-yl]quinoline-8-carbonitrile], at CYP3A4, the inhibition at 5 min, 10 µM is -3.5%.
Still for that read-out and setting: under `C[C@@H]1CN(c2ccc(C#N)c3ncccc23)C[C@H](CN2CCN(c3cc(N4CCNCC4)ccn3)CC2)O1` [Example 9, 5-[(2R,6S)-2-methyl-6-[[4-(4-piperazin-1-yl-2-pyridyl)piperazin-1-yl]methyl]morpholin-4-yl]quinoline-8-carbonitrile] stands 7.5%; under `C[C@@H]1CN(c2ccc(C#N)c3ncccc23)C[C@H](CN2CCC(C#N)(c3ccc(N4CCNCC4)cc3)CC2)O1` [Example 11, 5-[(2S,6R)-2-[[4-cyano-4-(4-piperazin-1-ylphenyl)-1-piperidyl]methyl]-6-methyl-morpholin-4-yl]quinoline-8-carbonitrile], 11%; under `C[C@@H]1CN(c2ccc(C#N)c3ncccc23)C[C@H](CN2CCN(c3nccc(N4CCNCC4)n3)CC2)O1` [Example 14, 5-[(2R,6S)-2-methyl-6-[[4-(4-piperazin-1-ylpyrimidin-2-yl)piperazin-1-yl]methyl]morpholin-4-yl]quinoline-8-carbonitrile], -2%.
For the compound `C[C@@H]1CN(c2ccc(C#N)c3ncccc23)C[C@H](CN2CCN(c3ccnc(N4CCNCC4)n3)CC2)O1` [Example 15, 5-[(2R,6S)-2-methyl-6-[[4-(2-piperazin-1-ylpyrimidin-4-yl)piperazin-1-yl]methyl]morpholin-4-yl]quinoline-8-carbonitrile], at hERG channel, the IC20 is over 10 µM, the IC50 is over 20 µM, the “hERG IC20/TLR7 IC50” value was over 1429 and the “hERG IC20/TLR8 IC50” value is over 3333. On hERG channel, the “hERG IC20/TLR9 IC50” value is over 278. Also, the inhibition at 5 min, 10 µM on CYP3A4 came to 11.5%.
As for `C[C@@H]1CN(c2ccc(C#N)c3ncccc23)C[C@H](CN2CCN(c3ccc([C@@H]4CNCCO4)cc3)CC2)O1` [Example 19, 5-[(2R,6S)-2-methyl-6-[[4-[4-[(2R)-morpholin-2-yl]phenyl]piperazin-1-yl]methyl]morpholin-4-yl]quinoline-8-carbonitrile], on CYP3A4, the inhibition at 5 min, 10 µM was determined as 12.5%.
Same read-out and setting: the figure for `C[C@@H]1CN(c2ccc(C#N)c3ncccc23)C[C@H](CN2CCN(c3cc(N4CCN(C)CC4)ncn3)CC2)O1` [Example 21, 5-[(2R,6S)-2-methyl-6-[[4-[6-(4-methylpiperazin-1-yl)pyrimidin-4-yl]piperazin-1-yl]methyl]morpholin-4-yl]quinoline-8-carbonitrile] is -1.5%.
As for `C[C@@H]1CN(c2ccc(C#N)c3ncccc23)C[C@H](CN2CCN(c3ccnc(N4CCN(C)CC4)n3)CC2)O1` [Example 22, 5-((2R,6S)-2-methyl-6-((4-(2-(4-methylpiperazin-1-yl)pyrimidin-4-yl)piperazin-1-yl)methyl)morpholino)quinoline-8-carbonitrile], the inhibition at 5 min, 10 µM against CYP3A4 is -16%.
With `C[C@@H]1CN(c2ccc(C#N)c3ncccc23)C[C@H](CN2CCN(c3ccnc(N[C@H]4CNC[C@H]4F)n3)CC2)O1` [Example 24, 5-[(2S,6R)-2-[[4-[2-[[(3S,4R)-4-fluoropyrrolidin-3-yl]amino]pyrimidin-4-yl]piperazin-1-yl]methyl]-6-methyl-morpholin-4-yl]quinoline-8-carbonitrile], at CYP3A4, the inhibition at 5 min, 10 µM is 4%.
Same read-out and setting: under `C[C@@H]1CN(c2ccc(C#N)c3ncccc23)C[C@H](CN2CCN(c3ccnc(N4CCNCC(O)C4)n3)CC2)O1` (stereo partly drawn) [Example 25, 5-[(2S,6R)-2-[[4-[2-(6-hydroxy-1,4-diazepan-1-yl)pyrimidin-4-yl]piperazin-1-yl]methyl]-6-methyl-morpholin-4-yl]quinoline-8-carbonitrile] stands -4%; under `C[C@@H]1CN(c2ccc(C#N)c3ncccc23)C[C@H](CN2CCN(c3ccnc(N4CCN[C@@H](CO)C4)n3)CC2)O1` [Example 29, 5-[(2S,6R)-2-[[4-[2-[(3R)-3-(hydroxymethyl)piperazin-1-yl]pyrimidin-4-yl]piperazin-1-yl]methyl]-6-methyl-morpholin-4-yl]quinoline-8-carbonitrile], -5.5%.
`C[C@@H]1CN(c2ccc(C#N)c3ncccc23)C[C@H](CN2CCN(c3cccc(NC4CNC4)n3)CC2)O1` [Example 38]: at hERG channel, the 20% effect level (IC20) was put at 5.5 µM, the IC50 is over 20 µM, the “hERG IC20/TLR7 IC50” value worked out at 344 and the “hERG IC20/TLR8 IC50” value was determined as 500. Further, the “hERG IC20/TLR9 IC50” value on hERG channel amounted to 57. In addition, the inhibition at 5 min, 10 µM against CYP3A4 stood at 20%.
In the case of `COC1CN(c2ccc(N3CCN(C[C@H]4CN(c5ccc(C#N)c6ncccc56)C[C@@H](C)O4)CC3)cn2)CC1N` (stereo partly drawn) [Example 43, 5-[(2S,6R)-2-[[4-[6-(3-amino-4-methoxy-pyrrolidin-1-yl)-3-pyridyl]piperazin-1-yl]methyl]-6-methyl-morpholin-4-yl]quinoline-8-carbonitrile], on CYP3A4, the inhibition at 5 min, 10 µM turned out to be 16%.
Regarding `C[C@@H]1CN(c2ccc(C#N)c3ncccc23)C[C@H](CN2CCN(c3nc(N4CCNCC4)ncc3F)CC2)O1` [Example 45, 5-[(2S,6R)-2-[[4-(5-fluoro-2-piperazin-1-yl-pyrimidin-4-yl)piperazin-1-yl]methyl]-6-methyl-morpholin-4-yl]quinoline-8-carbonitrile], the inhibition at 5 min, 10 µM against CYP3A4 is -5%.
On to `C[C@@H]1CN(c2ccc(C#N)n3ncc(F)c23)C[C@H](CN2CCN(c3ccc(N[C@H]4CNC[C@H]4F)nc3)CC2)O1` [Example 167, 3-fluoro-4-[(2S,6R)-2-[[4-[6-[[(3S,4R)-4-fluoropyrrolidin-3-yl]amino]-3-pyridyl]piperazin-1-yl]methyl]-6-methyl-morpholin-4-yl]pyrazolo[1,5-a]pyridine-7-carbonitrile], for which, on hERG channel, the IC20 is over 10 µM, the IC50 is over 20 µM, the “hERG IC20/TLR7 IC50” value is over 714 and the “hERG IC20/TLR8 IC50” value is over 294. Moreover, at hERG channel, the “hERG IC20/TLR9 IC50” value is recorded as over 217. Also, the inhibition at 5 min, 10 µM at CYP3A4 worked out at 44%.
For `C[C@@H]1CN(c2ccc(C#N)n3ncc(F)c23)C[C@H](CN2CCN(c3ccc(N4C[C@H]5NCCO[C@@H]5C4)nc3)CC2)O1` [Example 168, 4-[(2S,6R)-2-[[4-[6-[(4aR,7aR)-3,4,4a,5,7,7a-hexahydro-2H-pyrrolo[3,4-b][1,4]oxazin-6-yl]-3-pyridyl]piperazin-1-yl]methyl]-6-methyl-morpholin-4-yl]-3-fluoro-pyrazolo[1,5-a]pyridine-7-carbonitrile], on hERG channel, the IC20 was 8.6 µM, the IC50 was over 20 µM, the “hERG IC20/TLR7 IC50” value turned out to be 430 and the “hERG IC20/TLR8 IC50” value came out at 150. Also, the “hERG IC20/TLR9 IC50” value on hERG channel is given as 74. Moreover, the inhibition at 5 min, 10 µM on CYP3A4 stood at 11%.
Regarding `C[C@@H]1CN(c2ccc(C#N)n3ncc(F)c23)C[C@H](CN2CCN(c3ccc(N4CC5(CN(C)C5)C4)nc3)CC2)O1` [Example 170, 3-fluoro-4-[(2R,6S)-2-methyl-6-[[4-[6-(6-methyl-2,6-diazaspiro[3.3]heptan-2-yl)-3-pyridyl]piperazin-1-yl]methyl]morpholin-4-yl]pyrazolo[1,5-a]pyridine-7-carbonitrile], the inhibition at 5 min, 10 µM against CYP3A4 was -7%.
